According to patent US9446087B2, “Anti-resorptive and bone building dietary supplements and methods of use” (priority 2006, dated 2016):
Marks after values point to notes of the source that are not given here.

Key:
[1] = system: ovariectomized (OVX) rat model; assay: In vivo ovariectomized (OVX) rat study - biomechanical measurements; conditions: OVX rats, 35 days, positive control 0.5 mg/day; vs placebo group
Experimental: (§1) Two different formulas were tested in an in vivo study involving female, […] rats, aged approximately 12-14 weeks, with approximate body weights between 200-250 grams. Formula 2 included varying dosages of pomegranate extract and grape seed extract and a fixed dosage of ipriflavone as reported in Table 18. Three dosages were tested for each formula. The study utilized 8 groups of rats, with 15 rats in each group and lasted approximately 35 days.
Table 18 below indicates the formula given to each of the 8 test groups. The dosages in Table 18 are based on the recommended human dosages and were converted to the appropriate corresponding rat dose using the FDA conversion formula: Human equivalent dose (HED, mg/kg)=rat dose in mg/kg×(rat weight in kg/human weight in kg)^0.33 HED=rat NOAEL×(W-rat/W-human)^(1-b), b=0.67. […]
The effectiveness of the formulas on antiresorption was assessed by outcome measurements that included DEXA scan (to determine bone mineral density), biomechanical measurement (to gather bone strength and functional information), micro-CT measurement (to assess virtual bone quality and functional information), and histomorphology measurement (to assess bone quality and functional information). […] These measurements were determined after 35 days of treatment. […]

[2] = system: ovariectomized (OVX) rat model; assay: In vivo ovariectomized (OVX) rat study - histomorphology measurement; conditions: OVX rats, 35 days, positive control 0.5 mg/day; vs placebo group
Experimental: as §1
Table 18 below indicates the formula given to each of the 8 test groups. […]
The effectiveness of the formulas on antiresorption was assessed by outcome measurements that included DEXA scan (to determine bone mineral density), biomechanical measurement (to gather bone strength and functional information), micro-CT measurement (to assess virtual bone quality and functional information), and histomorphology measurement (to assess bone quality and functional information). […] These measurements were determined after 35 days of treatment.
Histomorphology measurement was also used as a tool to determine the efficacy of formulas 1 and 2 where trabecular bone volume from each group was quantified. […]

[3] = system: ovariectomized (OVX) rat model; assay: In vivo ovariectomized (OVX) rat study - micro-CT measurement; conditions: OVX rats, 35 days, positive control 0.5 mg/day; vs placebo group
Experimental: Two different formulas were tested in an in vivo study involving female, intact rats, aged approximately 12-14 weeks, with approximate body weights between 200-250 grams. Formula 2 included varying dosages of pomegranate extract and grape seed extract and a fixed dosage of ipriflavone as reported in Table 18. Three dosages were tested for each formula. The study utilized 8 groups of rats, with 15 rats in each group and lasted approximately 35 days.
To introduce rapid bone resorption caused by estrogen withdrawal, the ovariectomized (OVX) rat model was used in this study. […] It was important to evaluate the effect of bone resorption caused by the ovariectomy procedure so a Sham control (n=6), a group of female rats without undergoing the ovariectomy procedure, was also included in the study.
This study employed a randomized placebo controlled dose response design. A total of 120 ovariectomized rats (n=15 per group) aged ˜12-14 weeks, with body weights of approximately 200-250 grams were randomly assigned to groups for 35 days. Animals were fed at 15 grams/day, which included either a placebo diet or one of the formulas listed above, for a period of 35 days from the beginning of the experiment. […]

[4] = system: calvaria (skull bones) from 4 day old pups; assay: Calvarial Assay to Measure Inhibition of Bone Resorption (45Ca release); assay type: cell-based, CD-1 mice; conditions: positive control
Experimental: In order to label cells of newborn mice in utero, pregnant CD-1 female mice (at timed day 15) were injected with ^45Ca (25 uCi/mouse). […] The bones were incubated at 37° C. in a 5% CO2 humidified incubator for a period of 24 hours following which they were transferred to wells containing 1 ml media with factors added (IL-1, PTH and or compounds.) The treated bones were incubated under the above conditions for a further 72 hours. […] The results were expressed as % ^45Ca release and can be further reported as T/C ratios. For some factors and compounds, modification of this procedure can be used. As most of the osteoclasts are formed in the calvaria following the preincubation period, the factors that affect osteoclast formation may have a greater effect during the preincubation period. Thus, for a number of the compounds, they were included in the preincubation media.

NCCCC(O)(P(=O)(O)O)P(=O)(O)O [Alendronate]
Bone Stiffness [1]: 0.2%
Maximum Force Required to Fracture Bones [1]: −0.4%
% Bone Volume [2]: 214.1%^a
% Bone Volume/ Total Volume [3]: 632%^a
Trabecular Number (N/6 mm^3) [3]: 313%^a
Trabecular Separation [3]: −88%^a
Inhibition of Bone Resorption/Release of Calcium By Combinations of Extracts, % Release ([4]; IL-1 + 0.1 μM): 28.50 ± 1.19 % Release
Inhibition of Bone Resorption/Release of Calcium By Combinations of Extracts, % Release ([4]; IL-1 + 1 μM): 17.00 ± 1.15^a % Release
Inhibition of Bone Resorption/Release of Calcium By Combinations of Extracts, % Release ([4]; IL-1 + 10 μM): 14.07 ± 1.05^a % Release
Inhibition of Bone Resorption/Release of Calcium By Combinations of Extracts, % Release ([4]; IL-1 + 100 μM): 12.00 ± 0.17^a % Release
